This is an account of results in ChEMBL document CHEMBL1201862, “PubChem BioAssay data set” (2004).

Holding throughout (assay): NCI tumour cell line growth inhibition, 48 h
The subject of experiment [1] is ACHN.
Experiment [2] relates to COLO 205.
For experiment [3], the system named is EKVX.
Experiment [4] concerns HCC 2998.
Experiment [5] deals with Hs-578T.
In experiment [6] the test system is M14.
For experiment [7], the system named is MDA-MB-231.
The test system of experiment [8] is Malme-3M.
For experiment [9], the system named is NCI-H23.
The test system of experiment [10] is NCI-H460.
The test system of experiment [11] is OVCAR-3.
Experiment [12] concerns OVCAR-5.
For experiment [13], the system named is SF-268.
For experiment [14], the system named is SF-295.
For experiment [15], the system named is SNB-75.
For experiment [16], the system named is UO-31.
In experiment [17] the test system is HL-60.
Experiment [18] deals with HOP-92.
For experiment [19], the system named is K562.
The test system of experiment [20] is SR.

The structures appear in SMILES notation.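 Values below derive from 48-hour exposures of cells grown in 96-well plates, with endpoints linearly interpolated between the two concentrations bracketing the appropriate inhibition level. GI50 is the concentration that inhibits growth by half.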 Calls of active or inactive are those of the source. Rule as the data show it: active = GI50 up to about 1.1 µM and inactive = higher. Where only a bound is given, the exact number is not on record here.

On to `O=C1CCCC2=C1C(c1ccc3c(c1)OCO3)Nc1ccc3ccccc3c12` (centres undefined), for which the GI50 is 16 µM (inactive) in experiment [1]; > 100 µM (inactive) in [2]; 36.9 µM (inactive) in experiment [3]; > 100 µM (inactive) in experiment [4]; 41.3 µM (inactive) in experiment [5]; > 100 µM (inactive) in [6]. The GI50 in [7], in [8], in experiment [9], in experiment [10], in experiment [11] and in experiment [12] was > 100 µM (inactive) throughout. Besides, the GI50 in experiment [13], in experiment [14], in experiment [15] and in experiment [16] was > 100 µM (inactive) throughout.

On to `COc1ccc(/C=C2\C[C@H]3[C@@H]4CCC5=CC(=O)CC[C@]5(C)[C@H]4CC[C@]3(C)C2=O)cc1OC`, for which the GI50 in experiment [1] was 9.04 µM (inactive); in experiment [2] it was 3.1 µM (inactive); in [3] it was 8.41 µM (inactive); in [4], 21.8 µM (inactive); in [17], 1.37 µM (inactive); in [18], 5.27 µM (inactive). The GI50 is 45.8 µM (inactive) in experiment [5]; 3.8 µM (inactive) in experiment [19]; 14.9 µM (inactive) in experiment [6]; 8.65 µM (inactive) in [8]; 17.6 µM (inactive) in experiment [9]; 6.93 µM (inactive) in [10]. Further, the GI50 in experiment [11] was 17.5 µM (inactive); in [12], 32.4 µM (inactive); in [13], > 100 µM (inactive); in experiment [14], 0.0635 µM (active); in experiment [15], > 100 µM (inactive); in experiment [20], 2.81 µM (inactive). Moreover, in experiment [16], the GI50 is 2.42 µM (inactive).

With `N=C(N)Nc1ccc(CC(N)C(=O)NCC(=O)C(CC(=O)O)c2ncc(NC(=O)C(F)(F)F)o2)cc1` (centres undefined), the GI50 in experiment [1], in experiment [2], in experiment [3], in experiment [4], in experiment [17] and in experiment [5] was > 25 µM (inactive) in each case. For the same compound, the GI50 in [6], in experiment [7], in [8], in [9], in experiment [10] and in [11] was > 25 µM (inactive) throughout. Moreover, the GI50 in experiment [12], in [13], in experiment [14], in experiment [15] and in experiment [16] was > 25 µM (inactive) throughout.

On to `CCOP(=O)(OCC)C1=C(c2ccccc2)OC(N)=C(C#N)C1c1ccc(Cl)cc1` (centres undefined), for which the GI50 in experiment [1] was > 100 µM (inactive); in experiment [2], > 100 µM (inactive); in experiment [3], > 100 µM (inactive); in experiment [4], 79.3 µM (inactive); in experiment [17], > 100 µM (inactive); in experiment [18], > 100 µM (inactive). Further, the GI50 in [19], in experiment [6], in experiment [7], in [8], in experiment [9] and in experiment [10] was > 100 µM (inactive) throughout. For the same compound, the GI50 is > 100 µM (inactive) in experiment [11]; > 100 µM (inactive) in experiment [12]; 38.1 µM (inactive) in [13]; > 100 µM (inactive) in experiment [14]; > 100 µM (inactive) in experiment [15]; > 100 µM (inactive) in experiment [20]. Also, in [16], the GI50 was > 100 µM (inactive).

`N=C(N)N/N=C/c1c(-c2ccc(Cl)cc2)nc2sc(Cl)cn12`: the GI50 in experiment [1] was 3.85 µM (inactive); in [2], 0.923 µM (active); in experiment [3], 1.85 µM (inactive); in [17], 0.201 µM (active); in experiment [18], 1.69 µM (inactive); in experiment [5], 1.85 µM (inactive). For the same compound, the GI50 in [6] is 1.9 µM (inactive); in experiment [7] it was 1.82 µM (inactive); in experiment [9] it was 1.08 µM (active); in experiment [10] it was 1.69 µM (inactive); in experiment [11], 1.55 µM (inactive); in [12], 1.67 µM (inactive). For the same compound, the GI50 in [13] was 1.7 µM (inactive); in [14] it was 1.79 µM (inactive); in [15], 1.41 µM (inactive); in experiment [16], 1.68 µM (inactive).

As to `Clc1ccc(-c2nc3ccc4ccccc4c3c3c2CCCC3)cc1`, the GI50 in experiment [2] is > 100 µM (inactive); in experiment [3], 30.1 µM (inactive); in experiment [4] it was > 100 µM (inactive); in experiment [5], > 100 µM (inactive); in [19], > 100 µM (inactive); in experiment [6], > 100 µM (inactive). Moreover, the GI50 in [7] is > 100 µM (inactive); in [8], > 100 µM (inactive); in experiment [9], > 100 µM (inactive); in experiment [10] it was 97.3 µM (inactive); in [11], > 100 µM (inactive); in experiment [12], 1.55 µM (inactive). In addition, the GI50 in experiment [13], in experiment [14], in experiment [15] and in experiment [16] was > 100 µM (inactive) throughout.

For the compound `O=C1C[C@H](c2ccccc2)O[C@@H](c2ccccc2)C1`, the GI50 in experiment [2] was > 100 µM (inactive); in experiment [3], > 100 µM (inactive); in experiment [4], > 100 µM (inactive); in [18], > 100 µM (inactive); in experiment [5] it was > 100 µM (inactive); in [19] it was 26.9 µM (inactive). In addition, the GI50 in [6], in [7], in experiment [8], in experiment [9], in [10] and in [11] was > 100 µM (inactive) each time. Moreover, the GI50 in experiment [12], in [13], in experiment [14], in [15] and in experiment [16] was > 100 µM (inactive) in each case.

Turning to `O=C(NC(CO)Cc1ccc(Oc2cc(CC(CO)NC(=O)OCc3ccccc3)ccc2OC(=O)OCc2ccccc2)cc1)OCc1ccccc1` (centres undefined), the GI50 was 19.9 µM (inactive) in experiment [1]; 18.2 µM (inactive) in [2]; 14.5 µM (inactive) in experiment [3]; 16.1 µM (inactive) in experiment [4]; 9.82 µM (inactive) in experiment [17]; 19.5 µM (inactive) in experiment [18]. Moreover, the GI50 in experiment [5] is 5.97 µM (inactive); in experiment [19] it was 10.9 µM (inactive); in experiment [6] it was 18.2 µM (inactive); in [8], 16.7 µM (inactive); in experiment [9] it was 16.1 µM (inactive); in experiment [10], 17.8 µM (inactive). Further, the GI50 in experiment [11] was 19.5 µM (inactive); in experiment [12], 24.4 µM (inactive); in experiment [13], 23.5 µM (inactive); in experiment [14], 15.9 µM (inactive); in experiment [15], 16.5 µM (inactive); in experiment [20] it was 4.19 µM (inactive). The GI50 in [16] was 18.2 µM (inactive).
